Test results from US20230116972A1, “CD38 MODULATORS AND METHODS OF USE THEREOF” (Cytokinetics, Inc., priority 2021, published 2023).

Key:
[1] = system: nicotinamide levels in mouse tissues; experiment: tissue levels of nicotinamide in aged C57BL/6 mice after oral administration; format: in vivo; details: 100 mg/kg BID oral, 72-week-old male C57BL/6J mice, 4 h after the 3rd administration, vs vehicle, FIG. 1
Description: 0.1% Tween 80/0.5% HPMC or compound 148 prepared with 0.1% Tween 80/0.5% HPMC was orally administered at 100 mg/kg BID to 72-week-old male C57BL/6J mice. 4 h after the 3rd administration, each mouse was euthanized, and tissues collected.
Whole blood was collected and placed into pre-chilled K2EDTA microtainer tube, rotated 3-4 times to ensure anticoagulant mixing. An aliquot from the whole blood collection was added to 10 volumes of 0.5M PCA (perchloric acid), inverted 3-4 times to mix well, and then frozen on dry ice. While under isoflurane after cardiac puncture for blood collection, the following tissues were harvested in this order: heart, liver lobe, then by brain. All tissues were processed using pre-chilled freeze clamp. The frozen tissues were placed in pre-frozen labeled 2 mL Eppendorf tubes. The tissues were stored at −80° C. until processing. Upon processing, each tissue was cryomilled in the frozen state to form a powder. Frozen powdered tissue was weighed into pre-frozen tubes. Approximately 10 volumes of 0.5M PCA per weight of tissue were added to the tube followed by freezing until analysis. Upon analysis, blood and tissue samples were thawed on ice, followed by homogenization via TissueLyzer. Samples were centrifuged, the supernatant was collected and filtered, and the nicotinamide concentration in the supernatant of sample was measured using LC/MS.

[2] = system: human hepatic cytochrome P450 isozymes (CYP1A2, 2B6, 2C8, 2C9, 2C19, 2D6, and 3A4); experiment: time dependent inhibition, statement over all isozymes tested; format: in vitro ADME; details: any isozymes; pooled human microsomes; no indication of time dependent inhibition
Description: Time dependent inhibition: An assessment of the time-dependent Inhibitory potential of test compounds against the principal human cytochrome P450 isozymes was carried out using standard methods (Grimm et al, “The Conduct of in Vitro Studies to Address Time-Dependent Inhibition of Drug-Metabolizing Enzymes: A Perspective of the Pharmaceutical Research and Manufacturers of America”, Drug Metabolism and Disposition, 37 (7): 1355, 2009). […] Each compound was pre-incubated at 37° C. plus and minus NADPH for 30 min, and with 0 min pre-incubation for assessment of potential time dependent inhibition. LC-MS/MS was used to quantify metabolite formation. […] Note that, in Tables 8 and 9, the “Compound No” corresponds to the compound numbers in Table 1.

## CO[C@H]1CC[C@H](NC(=O)c2nccc(-c3cncn3C)n2)CC1 [Compound 148, N-((1r,4r)-4-methoxycyclohexyl)-4-(1-methyl-1H-imidazol-5-yl)pyrimidine-2-carboxamide]
[1]; blood
  nicotinamide levels in blood: decreased
[1]; brain
  nicotinamide levels in brain: decreased
[1]; heart
  nicotinamide levels in heart: decreased
[1]; liver
  nicotinamide levels in liver: decreased
[2]
  IC50 fold shift between 30 min pre-incubation plus NADPH and 0 min preincubation: ≤ 1.5 fold
